# Assay results reported in paper PMC12454493, “Insight on novel sulfamoylphenyl pyrazole derivatives as anticancer carbonic anhydrase inhibitors” (Molecular Diversity, 2024).
# Several values for one entry are separate records, joined by “and”; a condition that tells them apart may be missing. Identical values can stand only once.
# Legend:
# [1] = test system: HOP-92; experiment: NCI-60 one-dose SRB screen (Non-Small Cell Lung Cancer); format: cell-based; conditions: Homo sapiens, single dose 10 µM, 48 h, read-out: Growth inhibition percent (GI %)
# [2] = test system: NCI-H226; experiment: as above; format: cell-based; conditions: Homo sapiens, single dose 10 µM, 48 h, read-out: Growth inhibition percent (GI %)
# [3] = test system: HOP-62; experiment: as above; format: cell-based; conditions: Homo sapiens, single dose 10 µM, 48 h, read-out: Growth inhibition percent (GI %)
# [4] = test system: NCI-H322M; experiment: as above; format: cell-based; conditions: Homo sapiens, single dose 10 µM, 48 h, read-out: Growth inhibition percent (GI %)
# [5] = test system: NCI-H23; experiment: as above; format: cell-based; conditions: Homo sapiens, single dose 10 µM, 48 h, read-out: Growth inhibition percent (GI %)
# [6] = test system: NCI-H522; experiment: as above; format: cell-based; conditions: Homo sapiens, single dose 10 µM, 48 h, read-out: Growth inhibition percent (GI %)
# [7] = test system: A549/ATCC; experiment: as above; format: cell-based; conditions: Homo sapiens, single dose 10 µM, 48 h, read-out: Growth inhibition percent (GI %)
# [8] = test system: NCI-H460; experiment: as above; format: cell-based; conditions: Homo sapiens, single dose 10 µM, 48 h, read-out: Growth inhibition percent (GI %)
# [9] = test system: EKVX; experiment: as above; format: cell-based; conditions: Homo sapiens, single dose 10 µM, 48 h, read-out: Growth inhibition percent (GI %)
# [10] = test system: SK-MEL-2; experiment: NCI-60 one-dose SRB screen (Melanoma); format: cell-based; conditions: Homo sapiens, single dose 10 µM, 48 h, read-out: Growth inhibition percent (GI %)
# [11] = test system: UACC-62; experiment: NCI-60 one-dose SRB screen (Melanoma); format: cell-based; conditions: Homo sapiens, single dose 10 µM, 48 h, read-out: Growth inhibition percent (GI %)
# [12] = test system: UACC-257; experiment: NCI-60 one-dose SRB screen (Melanoma); format: cell-based; conditions: Homo sapiens, single dose 10 µM, 48 h, read-out: Growth inhibition percent (GI %)
# [13] = test system: M14; experiment: NCI-60 one-dose SRB screen (Melanoma); format: cell-based; conditions: Homo sapiens, single dose 10 µM, 48 h, read-out: Growth inhibition percent (GI %)
# [14] = test system: MALME-3M; experiment: NCI-60 one-dose SRB screen (Melanoma); format: cell-based; conditions: Homo sapiens, single dose 10 µM, 48 h, read-out: Growth inhibition percent (GI %)
# [15] = test system: SK-MEL-5; experiment: NCI-60 one-dose SRB screen (Melanoma); format: cell-based; conditions: Homo sapiens, single dose 10 µM, 48 h, read-out: Growth inhibition percent (GI %)
# [16] = test system: SK-MEL-28; experiment: NCI-60 one-dose SRB screen (Melanoma); format: cell-based; conditions: Homo sapiens, single dose 10 µM, 48 h, read-out: Growth inhibition percent (GI %)
# [17] = biological target: hCA XII (Homo sapiens, UniProt O43570); experiment: CA inhibitory activity, spectrophotometric p-NPA assay; format: biochemical; conditions: for IC50: p-NPA substrate, pH 7.5, 25 °C, triplicate, read-out: IC50 (µM) ± SD hCA XII
# Sequence of hCA XII (O43570 25-354): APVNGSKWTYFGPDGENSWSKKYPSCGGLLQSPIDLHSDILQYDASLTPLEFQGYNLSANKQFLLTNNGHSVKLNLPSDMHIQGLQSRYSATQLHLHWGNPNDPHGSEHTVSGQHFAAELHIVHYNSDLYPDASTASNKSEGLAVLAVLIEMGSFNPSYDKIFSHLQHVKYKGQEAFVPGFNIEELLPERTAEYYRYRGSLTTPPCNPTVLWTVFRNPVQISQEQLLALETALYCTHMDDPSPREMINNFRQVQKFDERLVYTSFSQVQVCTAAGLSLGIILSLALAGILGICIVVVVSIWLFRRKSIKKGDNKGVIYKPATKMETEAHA
# Experimental: The software used to calculate CA IC50 along with statistical analysis of the results is GraphPad Prism 9.00. Results were estimated by using one-way ANOVA and the Bonferroni’s multiple comparisons posthoc test was performed (P < 0.05) [46]
# Carbonic anhydrase inhibitory activity:
# The spectrophotometric assay was conducted in HEPES-Tris buffer, NaCl of pH 7.5 (20mM) at 25◦C. Each inhibitory well-consisted of 50 μL of assay buffer solution, 20 μL of hCA enzyme solution (20 ng/μL in Assay Buffer), and 50 μL of test compound in HPLC grade DMSO (maintain 10% of the final concentration). The mixture solution was
# Substrate p-nitrophenyl acetate (p-NPA) (0.7mM) was prepared in HPLC grade methanol and the reaction was started by adding 20 μL to a well in a 96-well-plate. The amount of product formed was measured for 30 min continuously at 1 min intervals at 400 nm in a 96-well-plate using xMARK microplate spectrophotometer, Bio-Rad (USA). The activity of the controlled compound was taken as 100%. All experiments were carried out in triplicates of each used concentration, and results are represented as a
# [18] = test system: RPMI-8226; experiment: NCI-60 one-dose SRB screen (Leukemia); format: cell-based; conditions: Homo sapiens, single dose 10 µM, 48 h, read-out: Growth inhibition percent (GI %)
# [19] = test system: MOLT-4; experiment: NCI-60 one-dose SRB screen (Leukemia); format: cell-based; conditions: Homo sapiens, single dose 10 µM, 48 h, read-out: Growth inhibition percent (GI %)
# [20] = test system: SR; experiment: NCI-60 one-dose SRB screen (Leukemia); format: cell-based; conditions: Homo sapiens, single dose 10 µM, 48 h, read-out: Growth inhibition percent (GI %)
# [21] = test system: K-562; experiment: NCI-60 one-dose SRB screen (Leukemia); format: cell-based; conditions: Homo sapiens, K562, single dose 10 µM, 48 h, read-out: Growth inhibition percent (GI %)
# [22] = test system: HL-60(TB); experiment: NCI-60 one-dose SRB screen (Leukemia); format: cell-based; conditions: Homo sapiens, single dose 10 µM, 48 h, read-out: Growth inhibition percent (GI %)
# [23] = test system: CCRF-CEM; experiment: NCI-60 one-dose SRB screen (Leukemia); format: cell-based; conditions: Homo sapiens, single dose 10 µM, 48 h, read-out: Growth inhibition percent (GI %)
# [24] = test system: COLO 205; experiment: NCI-60 one-dose SRB screen (Colon Cancer); format: cell-based; conditions: Homo sapiens, single dose 10 µM, 48 h, read-out: Growth inhibition percent (GI %)
# [25] = test system: HCC-2998; experiment: NCI-60 one-dose SRB screen (Colon Cancer); format: cell-based; conditions: Homo sapiens, single dose 10 µM, 48 h, read-out: Growth inhibition percent (GI %)
# [26] = test system: HCT-15; experiment: NCI-60 one-dose SRB screen (Colon Cancer); format: cell-based; conditions: Homo sapiens, single dose 10 µM, 48 h, read-out: Growth inhibition percent (GI %)
# [27] = test system: HT29; experiment: NCI-60 one-dose SRB screen (Colon Cancer); format: cell-based; conditions: Homo sapiens, HT-29, single dose 10 µM, 48 h, read-out: Growth inhibition percent (GI %)
# [28] = test system: KM12; experiment: NCI-60 one-dose SRB screen (Colon Cancer); format: cell-based; conditions: Homo sapiens, single dose 10 µM, 48 h, read-out: Growth inhibition percent (GI %)
# [29] = test system: HCT-116; experiment: NCI-60 one-dose SRB screen (Colon Cancer); format: cell-based; conditions: Homo sapiens, single dose 10 µM, 48 h, read-out: Growth inhibition percent (GI %)
# [30] = test system: SW-620; experiment: NCI-60 one-dose SRB screen (Colon Cancer); format: cell-based; conditions: Homo sapiens, single dose 10 µM, 48 h, read-out: Growth inhibition percent (GI %)
# [31] = biological target: hCA IX (Homo sapiens, UniProt Q16790); experiment: CA inhibitory activity, spectrophotometric p-NPA assay; format: biochemical; conditions: for IC50: p-NPA substrate, pH 7.5, 25 °C, triplicate, read-out: IC50 (µM) ± SD hCA IX
# [32] = test system: DU-145; experiment: NCI-60 one-dose SRB screen (Prostate Cancer); format: cell-based; conditions: Homo sapiens, single dose 10 µM, 48 h, read-out: Growth inhibition percent (GI %)
# [33] = test system: PC-3; experiment: NCI-60 one-dose SRB screen (Prostate Cancer); format: cell-based; conditions: Homo sapiens, single dose 10 µM, 48 h, read-out: Growth inhibition percent (GI %)
# [34] = test system: SF-268; experiment: NCI-60 one-dose SRB screen (CNS Cancer); format: cell-based; conditions: Homo sapiens, single dose 10 µM, 48 h, read-out: Growth inhibition percent (GI %)
# [35] = test system: SF-295; experiment: NCI-60 one-dose SRB screen (CNS Cancer); format: cell-based; conditions: Homo sapiens, single dose 10 µM, 48 h, read-out: Growth inhibition percent (GI %)
# [36] = test system: SF-539; experiment: NCI-60 one-dose SRB screen (CNS Cancer); format: cell-based; conditions: Homo sapiens, single dose 10 µM, 48 h, read-out: Growth inhibition percent (GI %)
# [37] = test system: SNB-75; experiment: NCI-60 one-dose SRB screen (CNS Cancer); format: cell-based; conditions: Homo sapiens, single dose 10 µM, 48 h, read-out: Growth inhibition percent (GI %)
# [38] = test system: SNB-19; experiment: NCI-60 one-dose SRB screen (CNS Cancer); format: cell-based; conditions: Homo sapiens, single dose 10 µM, 48 h, read-out: Growth inhibition percent (GI %)
# [39] = test system: U251; experiment: NCI-60 one-dose SRB screen (CNS Cancer); format: cell-based; conditions: Homo sapiens, U-251, single dose 10 µM, 48 h, read-out: Growth inhibition percent (GI %)
# [40] = test system: ACHN; experiment: NCI-60 one-dose SRB screen (Renal Cancer); format: cell-based; conditions: Homo sapiens, single dose 10 µM, 48 h, read-out: Growth inhibition percent (GI %)
# [41] = test system: TK-10; experiment: NCI-60 one-dose SRB screen (Renal Cancer); format: cell-based; conditions: Homo sapiens, single dose 10 µM, 48 h, read-out: Growth inhibition percent (GI %)
# [42] = test system: SN12C; experiment: NCI-60 one-dose SRB screen (Renal Cancer); format: cell-based; conditions: Homo sapiens, single dose 10 µM, 48 h, read-out: Growth inhibition percent (GI %)
# [43] = test system: RXF 393; experiment: NCI-60 one-dose SRB screen (Renal Cancer); format: cell-based; conditions: Homo sapiens, single dose 10 µM, 48 h, read-out: Growth inhibition percent (GI %)
# [44] = test system: UO-31; experiment: NCI-60 one-dose SRB screen (Renal Cancer); format: cell-based; conditions: Homo sapiens, single dose 10 µM, 48 h, read-out: Growth inhibition percent (GI %)
# [45] = test system: A498; experiment: NCI-60 one-dose SRB screen (Renal Cancer); format: cell-based; conditions: Homo sapiens, single dose 10 µM, 48 h, read-out: Growth inhibition percent (GI %)
# [46] = test system: CAKI-1; experiment: NCI-60 one-dose SRB screen (Renal Cancer); format: cell-based; conditions: Homo sapiens, single dose 10 µM, 48 h, read-out: Growth inhibition percent (GI %)
# [47] = test system: 786-0; experiment: NCI-60 one-dose SRB screen (Renal Cancer); format: cell-based; conditions: Homo sapiens, single dose 10 µM, 48 h, read-out: Growth inhibition percent (GI %)
compound,measurement,setting,value
"COc1ccc(-c2nn(-c3ccc(S(N)(=O)=O)cc3)cc2C(=O)OCC(=O)Nc2nnc(S(N)(=O)=O)s2)cc1 [Compound 6c, 2-Oxo-2-[(5-sulfamoyl-1,3,4-thiadiazol-2-yl)amino] ethyl 3-(4-methoxyphenyl)-1-(4-sulfamoylphenyl)-1H-pyrazole-4-carboxylate]",inhibition at 10 µM,[1],27.4%
same,inhibition at 10 µM,[2],8.69%
same,inhibition at 10 µM,[3],< 5%
same,inhibition at 10 µM,[4],< 5%
same,inhibition at 10 µM,[5],< 5%
same,inhibition at 10 µM,[6],5.91%
same,inhibition at 10 µM,[7],< 5%
same,inhibition at 10 µM,[8],< 5%
same,inhibition at 10 µM,[9],11.2%
same,inhibition at 10 µM,[10],< 5%
same,inhibition at 10 µM,[11],9.09%
same,inhibition at 10 µM,[12],< 5%
same,inhibition at 10 µM,[13],< 5%
same,inhibition at 10 µM,[14],5.67%
same,inhibition at 10 µM,[15],< 5%
same,inhibition at 10 µM,[16],< 5%
same,Ki,[17],95 nM
same,IC50,[17],0.09 µM and 0.095 µM
same,inhibition at 10 µM,[18],< 5%
same,inhibition at 10 µM,[19],< 5%
same,inhibition at 10 µM,[20],< 5%
same,inhibition at 10 µM,[21],< 5%
same,inhibition at 10 µM,[22],< 5%
same,inhibition at 10 µM,[23],< 5%
same,inhibition at 10 µM,[24],< 5%
same,inhibition at 10 µM,[25],< 5%
same,inhibition at 10 µM,[26],< 5%
same,inhibition at 10 µM,[27],< 5%
same,inhibition at 10 µM,[28],< 5%
same,inhibition at 10 µM,[29],< 5%
same,inhibition at 10 µM,[30],< 5%
same,Ki,[31],73 nM
same,IC50,[31],0.07 µM and 0.073 µM
same,inhibition at 10 µM,[32],< 5%
same,inhibition at 10 µM,[33],< 5%
same,inhibition at 10 µM,[34],< 5%
same,inhibition at 10 µM,[35],< 5%
same,inhibition at 10 µM,[36],< 5%
same,inhibition at 10 µM,[37],13.4%
same,inhibition at 10 µM,[38],< 5%
same,inhibition at 10 µM,[39],< 5%
same,inhibition at 10 µM,[40],< 5%
same,inhibition at 10 µM,[41],< 5%
same,inhibition at 10 µM,[42],< 5%
same,inhibition at 10 µM,[43],< 5%
same,inhibition at 10 µM,[44],14.9%
same,inhibition at 10 µM,[45],7.75%
same,inhibition at 10 µM,[46],21.5%
same,inhibition at 10 µM,[47],< 5%
"Cc1ccc(-c2nn(-c3ccc(S(N)(=O)=O)cc3)cc2C(=O)NNC(N)=S)cc1 [Compound 9b, 2-[1-(4-Sulfamoylphenyl)-3-(p-tolyl)-1H-pyrazole-4-carbonyl] hydrazine-1-carbothioamide]",inhibition at 10 µM,[1],< 5%
same,inhibition at 10 µM,[2],< 5%
same,inhibition at 10 µM,[3],< 5%
same,inhibition at 10 µM,[4],< 5%
same,inhibition at 10 µM,[5],< 5%
same,inhibition at 10 µM,[6],< 5%
same,inhibition at 10 µM,[7],< 5%
same,inhibition at 10 µM,[8],< 5%
same,inhibition at 10 µM,[9],< 5%
same,inhibition at 10 µM,[10],< 5%
same,inhibition at 10 µM,[11],5.9%
same,inhibition at 10 µM,[12],< 5%
same,inhibition at 10 µM,[13],< 5%
same,inhibition at 10 µM,[14],< 5%
same,inhibition at 10 µM,[15],< 5%
same,inhibition at 10 µM,[16],< 5%
same,IC50,[17],0.33 µM and 0.335 µM
same,inhibition at 10 µM,[18],< 5%
same,inhibition at 10 µM,[19],< 5%
same,inhibition at 10 µM,[20],< 5%
same,inhibition at 10 µM,[21],< 5%
same,inhibition at 10 µM,[22],< 5%
same,inhibition at 10 µM,[23],19.6%
same,inhibition at 10 µM,[24],< 5%
same,inhibition at 10 µM,[25],< 5%
same,inhibition at 10 µM,[26],< 5%
same,inhibition at 10 µM,[27],< 5%
same,inhibition at 10 µM,[28],< 5%
same,inhibition at 10 µM,[29],< 5%
same,inhibition at 10 µM,[30],< 5%
same,IC50,[31],0.33 µM and 0.339 µM
same,inhibition at 10 µM,[32],< 5%
same,inhibition at 10 µM,[33],< 5%
same,inhibition at 10 µM,[34],< 5%
same,inhibition at 10 µM,[35],< 5%
same,inhibition at 10 µM,[36],5.95%
same,inhibition at 10 µM,[37],6.3%
same,inhibition at 10 µM,[38],< 5%
same,inhibition at 10 µM,[39],< 5%
same,inhibition at 10 µM,[40],< 5%
same,inhibition at 10 µM,[41],< 5%
same,inhibition at 10 µM,[42],< 5%
same,inhibition at 10 µM,[43],< 5%
same,inhibition at 10 µM,[44],< 5%
same,inhibition at 10 µM,[45],< 5%
same,inhibition at 10 µM,[46],7.05%
same,inhibition at 10 µM,[47],< 5%
